A word on the IC50: it is the concentration needed to halve the response being measured.

Sequence of recombinant HCV NS5B (HCV RNA-dependent RNA polymerase) (P26663 2420-3010 limits assumed): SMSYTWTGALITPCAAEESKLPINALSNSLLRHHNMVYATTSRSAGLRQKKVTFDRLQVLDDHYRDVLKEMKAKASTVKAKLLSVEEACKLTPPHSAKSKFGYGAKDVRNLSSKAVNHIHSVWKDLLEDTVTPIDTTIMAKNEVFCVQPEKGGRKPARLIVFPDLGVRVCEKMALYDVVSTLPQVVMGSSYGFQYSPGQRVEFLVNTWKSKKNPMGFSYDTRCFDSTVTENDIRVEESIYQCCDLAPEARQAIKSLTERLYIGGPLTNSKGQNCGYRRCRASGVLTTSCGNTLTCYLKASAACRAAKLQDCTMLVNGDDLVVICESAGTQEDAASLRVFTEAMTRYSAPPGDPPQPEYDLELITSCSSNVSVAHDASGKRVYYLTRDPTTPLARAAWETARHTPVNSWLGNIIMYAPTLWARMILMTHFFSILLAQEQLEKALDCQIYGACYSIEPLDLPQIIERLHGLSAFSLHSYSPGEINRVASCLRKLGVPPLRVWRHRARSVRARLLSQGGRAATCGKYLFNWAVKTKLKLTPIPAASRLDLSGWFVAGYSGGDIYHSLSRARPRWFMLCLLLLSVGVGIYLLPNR

One experiment addresses recombinant HCV NS5B (HCV RNA-dependent RNA polymerase) (Hepatitis C virus genotype 1b, UniProt P26663). Kind of experiment: biochemical. The conditions noted are these: HCV polymerase activity, list of compounds of Example 27; read-out: IC50 (polymerase activity).
Take `CC1=CCC(C(=O)N(c2cc(-c3ccccc3)sc2C(=O)O)C(C)C)C1` (stereo not shown) [Compound 405, 3-[ISOPROPYL-(3-METHYL-CYCLOPENT- 3-ENECARBONYL)-AMINO]-5-PHENYL- THIOPHENE-2-CARBOXYLIC ACID]: the half-maximal inhibitory concentration (IC50) was < 5 µM.

For `CCCC(=O)N(Cc1cccc(C)c1)c1cc(-c2ccccc2)sc1C(=O)O` [Compound 446, 3-[BUTYRYL-(3-METHYL-BENZYL)- AMINO]-5-PHENYL-THIOPHENE-2- CARBOXYLIC ACID], the concentration for half-maximal inhibition (IC50) was 5 to 20 µM.

Consider `CC(C)(C)c1ccc(CN(C(=O)CC2CCCC2)c2cc(-c3ccccc3)sc2C(=O)O)cc1` [Compound 442, 3-[(4-TERT-BUTYL-BENZYL)-(2- CYCLOPENTYL-ACETYL)-AMINO]-5- PHENYL-THIOPHENE-2-CARBOXYLIC ACID], for which the IC50 is < 5 µM.

Turning to `O=C(O)c1sc(-c2ccccc2)cc1N(CC1CCNCC1)C(=O)c1ccc(Cl)cc1Cl` [Compound 519, 3-[(2,4-DICHLORO-BENZOYL)-PIPERIDIN- 4-YLMETHYL-AMINO]-5-PHENYL- THIOPHENE-2-CARBOXYLIC ACID], the half-maximal inhibitory concentration (IC50) is < 5 µM.

`CC(C)N(C(=O)c1cc2c(Cl)cc(Cl)cc2[nH]1)c1cc(-c2ccccc2)sc1C(=O)O` [Compound 521, 3-[(4,6-DICHLORO-1#H!-INDOLE-2- CARBONYL)-ISOPROPYL-AMINO]-5- PHENYL-THIOPHENE-2-CARBOXYLIC ACID]: the IC50 is < 5 µM.

With `CC(C1CCN(C(=O)OCc2ccccc2)CC1)N(C(=O)c1ccc(Cl)cc1Cl)c1cc(-c2ccccc2)sc1C(=O)O` (stereo not shown) [Compound 523, 4-{1-[(2-CARBOXY-5-PHENYL-THIOPHEN- 3-YL)-(2,4-DICHLORO-BENZOYL)-AMINO]- ETHYL}-PIPERIDINE-1-CARBOXYLIC ACID BENZYL ESTER], the half-maximal inhibitory concentration (IC50) is 5 to 20 µM.

With `Cc1ccccc1S(=O)(=O)Nc1cc(Br)sc1C(=O)O` [Compound 552, 5-BROMO-3-(TOLUENE-2- SULFONYLAMINO)-THIOPHENE-2- CARBOXYLIC ACID], the IC50 was in the range of 5 to 20 µM.

Regarding `CC1CCC(C(=O)N(c2cc(-c3ccccc3)sc2C(=O)O)C(C)C)C(O)C1` (stereo not shown) [Compound 402, 3-[(2-HYDROXY-4-METHYL- CYCLOHEXANECARBONYL)-ISOPROPYL- AMINO]-5-PHENYL-THIOPHENE-2- CARBOXYLIC ACID], the IC50 is < 5 µM.

Consider `CC1CCC(C(=O)N(c2cc(-c3ccccc3)sc2C(=O)O)C(C)C)C1` (stereo not shown) [Compound 408, 3-[ISOPROPYL-(3-METHYL- CYCLOPENTANECARBONYL)-AMINO]-5- PHENYL-THIOPHENE-2-CARBOXYLIC ACID], for which the half-maximal inhibitory concentration (IC50) is 5 to 20 µM.

With `CC(C)CC(=O)N(Cc1ccc(Cl)cc1)c1cc(-c2ccccc2)sc1C(=O)O` [Compound 458, 3-[(4-CHLORO-BENZYL)-(3-METHYL- BUTYRYL)-AMINO]-5-PHENYL- THIOPHENE-2-CARBOXYLIC ACID], the IC50 lay within 5 to 20 µM.

Staying with this experiment, now noted: related polymerase activity (Example 27 list); read-out: IC50.
With `Cc1ccccc1S(=O)(=O)Nc1cc(-c2ccc(C#N)cc2)sc1C(=O)O` [Compound 83, 5-(4-CYANO-PHENYL)-3-(TOLUENE-2-SULFONYLAMINO)-THIOPHENE-2-CARBOXYLIC ACID], the IC50 was < 5 µM.

For the molecule `CC(C)N(C(=O)c1ccc(C#N)cc1)c1cc(-c2ccccc2)sc1C(=O)O` [Compound 311, 3-[(4-CYANO-BENZOYL)-ISOPROPYL- AMINO]-5-PHENYL-THIOPHENE-2- CARBOXYLIC ACID], the IC50 lay in the range of 5 to 20 µM.

Consider `Cc1ccccc1S(=O)(=O)Nc1cc(-c2ccccc2C(F)(F)F)sc1C(=O)O` [Compound 106, 3-(TOLUENE-2-SULFONYLAMINO)-5-(2-TRIFLUOROMETHYL-PHENYL)-THIOPHENE-2-CARBOXYLIC ACID], for which the half-maximal inhibitory concentration (IC50) was in the range of 5 to 20 µM.

`CC(C)N(C(=O)c1ccc(Cl)cc1O)c1cc(-c2ccccc2)sc1C(=O)O` [Compound 313, 3-[(4-CHLORO-2-HYDROXY-BENZOYL)- ISOPROPYL-AMINO]-5-PHENYL- THIOPHENE-2-CARBOXYLIC ACID]: the IC50 was < 5 µM.

`Cc1ccc(C(=O)N(c2cc(-c3cccc(C(F)(F)F)c3)sc2C(=O)O)C(C)C)cc1` [Compound 304, 3-[ISOPROPYL-(4-METHYL-BENZOYL)- AMINO]-5-(3-TRIFLUOROMETHYL- PHENYL)-THIOPHENE-2-CARBOXYLIC ACID]: the IC50 is < 5 µM.

Turning to `CC(C)N(C(=O)c1cc(Cl)cc(Cl)c1)c1cc(-c2ccccc2)sc1C(=O)O` [Compound 219, 3-[(3,5-DICHLORO-BENZOYL)-ISOPROPYL-AMINO]-5-PHENYL-THIOPHENE-2-CARBOXYLIC ACID], the half-maximal inhibitory concentration (IC50) lay within 5 to 20 µM.

For the molecule `CCc1ccc(-c2cc(NS(=O)(=O)c3ccccc3C)c(C(=O)O)s2)cc1` [Compound 232, 5-(4-ETHYL-PHENYL)-3-(TOLUENE-2-SULFONYLAMINO)-THIOPHENE-2-CARBOXYLIC ACID], the IC50 is < 5 µM.

Take `O=C(O)c1sc(-c2ccccc2)cc1NS(=O)(=O)c1cc(OCC(F)(F)F)ccc1OCC(F)(F)F` [Compound 176, 3-[2,5-BIS-(2,2,2-TRIFLUORO-ETHOXY)-BENZENESULFONYLAMINO]-5-PHENYL-THIOPHENE-2-CARBOXYLIC ACID]: the IC50 fell in the range of 5 to 20 µM.

As for `Cc1ccc(C(=O)N(C)c2cc(-c3ccccc3Cl)sc2C(=O)O)cc1` [Compound 207, 5-(2-CHLORO-PHENYL)-3-[METHYL-(4-METHYL-BENZOYL)-AMINO]-THIOPHENE-2-CARBOXYLIC ACID], the IC50 lay within 5 to 20 µM.

`O=C(O)c1sc(-c2ccccc2)cc1N(Cc1ccc(-c2ccc(F)c(Cl)c2)s1)C(=O)c1ccc(Cl)cc1Cl` [Compound 111, 3-[[5-(3-CHLORO-4-FLUORO-PHENYL)-THIOPHEN-2-YLMETHYL]-(2,4-DICHLORO-BENZOYL)-AMINO]-5-PHENYL-THIOPHENE-2-CARBOXYLIC ACID]: the half-maximal inhibitory concentration (IC50) is < 5 µM.

As for `Cc1ccc(C(=O)N(c2cc(-c3ccc(F)cc3)sc2C(=O)O)C(C)C)cc1` [Compound 283, 5-(4-FLUORO-PHENYL)-3-[ISOPROPYL-(4-METHYL-BENZOYL)-AMINO]-THIOPHENE-2-CARBOXYLIC ACID], the half-maximal inhibitory concentration (IC50) is < 5 µM.

For the molecule `Cc1ccccc1S(=O)(=O)Nc1cc(-c2ccc3[nH]ccc3c2)sc1C(=O)O` [Compound 260, 5-(1H-INDOL-5-YL)-3-(TOLUENE-2-SULFONYLAMINO)-THIOPHENE-2-CARBOXYLIC ACID], the IC50 was in the range of 5 to 20 µM.

On to `Cc1ccc(C)c(S(=O)(=O)Nc2cc(-c3ccc([N+](=O)[O-])cc3)sc2C(=O)O)c1` [Compound 100, 3-(2,5-DIMETHYL-BENZENESULFONYLAMINO)-5-(4-NITRO-PHENYL)-THIOPHENE-2-CARBOXYLIC ACID], for which the IC50 was < 5 µM.

For the molecule `CC1CCCCC1C(=O)N(c1cc(-c2ccccc2)sc1C(=O)O)C(C)C` (stereo not shown) [Compound 379, 3-[ISOPROPYL-(2-METHYL- CYCLOHEXANECARBONYL)-AMINO]-5- PHENYL-THIOPHENE-2-CARBOXYLIC ACID], the IC50 fell in the range of 5 to 20 µM.

As for `CC(C)(C)N(C(=O)c1ccc(Cl)cc1Cl)c1cc(-c2ccccc2)sc1C(=O)O` [Compound 327, 3-[#TERT!-BUTYL-(2,4-DICHLORO- BENZOYL)-AMINO]-5-PHENYL- THIOPHENE-2-CARBOXYLIC ACID], the IC50 is < 5 µM.

For `CC(C)N(C(=O)c1ccc(F)cc1)c1cc(-c2ccccc2)sc1C(=O)O` [Compound 226, 3-[(4-FLUORO-BENZOYL)-ISOPROPYL-AMINO]-5-PHENYL-THIOPHENE-2-CARBOXYLIC ACID], the half-inhibitory concentration (IC50) fell in the range of 5 to 20 µM.

`N#Cc1ccccc1S(=O)(=O)Nc1cc(-c2ccccc2)sc1C(=O)O` [Compound 54, 3-(2-CYANO-BENZENESULFONYLAMINO)-5-PHENYL-THIOPHENE-2-CARBOXYLIC ACID]: the IC50 is < 5 µM.

On to `CC1CCC(C(=O)N(C)c2cc(-c3ccccc3)sc2C(=O)O)CC1` (stereo not shown) [Compound 286, 3-[METHYL-(4-METHYL-CYCLOHEXANECARBONYL)-AMINO]-5-PHENYL THIOPHENE-2-CARBOXYLIC ACID], for which the IC50 was < 5 µM.

With `CC(C)N(C(=O)c1ccc(Cl)cc1Br)c1cc(-c2ccccc2)sc1C(=O)O` [Compound 306, 3-[(2-BROMO-4-CHLORO-BENZOYL)- ISOPROPYL-AMINO]-5-PHENYL- THIOPHENE-2-CARBOXYLIC ACID], the IC50 is < 5 µM.

For `O=C(O)c1sc(-c2ccccc2)cc1N(C(=O)c1ccc(Cl)cc1Cl)c1ccccc1` [Compound 208, 3-[(2,4-DICHLORO-BENZOYL)-PHENYL-AMINO]-5-PHENYL-THIOPHENE-2-CARBOXYLIC ACID], the half-inhibitory concentration (IC50) is < 5 µM.

On to `CC(=O)Oc1cc(C)ccc1C(=O)N(c1cc(-c2ccccc2)sc1C(=O)O)C(C)C` [Compound 377, 3-[(2-ACETOXY-4-METHYL-BENZOYL)- ISOPROPYL-AMINO]-5-PHENYL- THIOPHENE-2-CARBOXYLIC ACID], for which the half-inhibitory concentration (IC50) fell in the range of 5 to 20 µM.

For `Cc1ccc(C(=O)Nc2cc(-c3ccccc3)sc2C(=O)O)cc1` [Compound 92, 3-(4-METHYL-BENZOYLAMINO)-5-PHENYL-THIOPHENE-2-CARBOXYLIC ACID], the IC50 is 5 to 20 µM.

As for `N#Cc1ccccc1-c1ccc(CN(C(=O)c2ccc(Cl)cc2Cl)c2cc(-c3ccccc3)sc2C(=O)O)s1` [Compound 132, 3-[[(5-(2-CYANO-PHENYL)-THIOPHEN-2-YLMETHYL]-(2,4-DICHLORO-BENZOYL)-AMINO]-5-PHENYL-THIOPHENE-2-CARBOXYLIC ACID], the IC50 was < 5 µM.

As for `Cc1cc(F)ccc1S(=O)(=O)Nc1cc(-c2ccccc2)sc1C(=O)O` [Compound 370, 3-(4-FLUORO-2-METHYL- BENZENESULFONYLAMINO)-5-PHENYL- THIOPHENE-2-CARBOXYLIC ACID], the half-maximal inhibitory concentration (IC50) lay in the range of 5 to 20 µM.

Take `Cc1ccccc1S(=O)(=O)Nc1cc(-c2ccccc2O)sc1C(=O)O` [Compound 217, 5-(2-HYDROXY-PHENYL)-3-(TOLUENE-2-SULFONYLAMINO)-THIOPHENE-2-CARBOXYLIC ACID]: the IC50 fell in the range of 5 to 20 µM.

For `O=C(O)c1sc(-c2ccccc2)cc1NC(=O)N1CCN(c2ccccc2Cl)CC1` [Compound 159, 3-{[4-(2-CHLORO-PHENYL)-PIPERAZINE-1-CARBONYL]-AMINO}-5-PHENYL-THIOPHENE-2-CARBOXYLIC ACID], the IC50 lay within 5 to 20 µM.

`CC(C)(C)c1ccc(S(=O)(=O)Nc2cc(-c3ccccc3)sc2C(=O)O)cc1` [Compound 32, 3-(4-TERT-BUTYL-BENZENESULFONYLAMINO)-5-PHENYL-THIOPHENE-2-CARBOXYLIC ACID]: the half-inhibitory concentration (IC50) fell in the range of 5 to 20 µM.

(Values after patent publication US6881741B2 (ViroChem Pharma Inc., priority 2001, dated 2005).)
